{
  "source": "patent US8354539B2",
  "about": "“Indole derivatives as IKK2 inhibitors” (Glaxo Group Limited, priority 2009, dated 2013)",
  "key": {"[1]": {"biological_target": "T1, Recombinant human IKKβ (IKK2) (Homo sapiens, UniProt O14920)", "T1 construct": "Recombinant human IKKβ (residues 5-756); GST (C); made in house", "T1 sequence (O14920 5-756)": "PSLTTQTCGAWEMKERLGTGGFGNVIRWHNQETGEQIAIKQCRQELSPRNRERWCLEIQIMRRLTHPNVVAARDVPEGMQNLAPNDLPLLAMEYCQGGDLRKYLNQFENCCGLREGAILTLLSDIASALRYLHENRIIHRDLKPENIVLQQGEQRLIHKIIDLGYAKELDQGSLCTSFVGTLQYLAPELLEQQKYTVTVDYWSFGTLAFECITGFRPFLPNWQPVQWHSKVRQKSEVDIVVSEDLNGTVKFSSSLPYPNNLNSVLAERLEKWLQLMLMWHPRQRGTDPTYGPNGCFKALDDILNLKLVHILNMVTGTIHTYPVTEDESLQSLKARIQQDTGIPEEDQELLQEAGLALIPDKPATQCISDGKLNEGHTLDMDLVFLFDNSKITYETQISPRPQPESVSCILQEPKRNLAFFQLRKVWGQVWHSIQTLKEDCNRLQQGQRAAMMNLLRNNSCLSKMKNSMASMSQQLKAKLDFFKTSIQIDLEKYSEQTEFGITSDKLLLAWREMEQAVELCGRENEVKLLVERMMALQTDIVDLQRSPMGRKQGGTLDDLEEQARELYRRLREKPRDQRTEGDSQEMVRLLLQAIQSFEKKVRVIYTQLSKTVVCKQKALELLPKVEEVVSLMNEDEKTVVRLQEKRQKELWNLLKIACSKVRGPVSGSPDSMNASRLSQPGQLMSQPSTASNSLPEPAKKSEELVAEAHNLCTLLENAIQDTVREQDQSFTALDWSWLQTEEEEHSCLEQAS", "assay": "IKK2 assay (TR-FRET)", "type": "biochemical", "conditions": "read-out: pIC50 potency against IKK2 (converted)", "method": "Recombinant human IKKβ (residues 5-756) was expressed in baculovirus as a C-terminal GST-tagged fusion protein, and its activity was assessed using a time-resolved fluorescence resonance energy transfer (TR-FRET) assay. Briefly, IKKβ (0.5-4 nM final concentration) diluted in assay buffer (50 mM HEPES, 10 mM MgCl2, 1 mM CHAPS pH 7.4 with 1 mM DTT and 0.01% w/v BSA) was added to wells containing various concentrations of compound or DMSO vehicle (1.7% v/v final). The reaction was initiated by the addition of GST-IkappaBalpha substrate (25 nM final)/ATP (1 μM final), in a total volume of 6 μl. The reaction was incubated for 15 mins at room temperature, then terminated by the addition of 3 μl of 50 mM EDTA in buffer (100 mM HEPES pH 7.4, 150 mM NaCl and 0.1% w/v BSA) containing antiphosphoserine-IkappaBalpha-32/36 monoclonal antibody clone 12C2 (Cell Signalling Technology, Beverly Mass., USA) labelled with W-1024 europium chelate (Wallac O Y, Turku, Finland), and an APC-labelled anti-GST antibody (Prozyme, San Leandro, Calif., USA). The reaction was further incubated for 60 mins at room temperature and the degree of phosphorylation of GST-IkappaBalpha measured using a Rubystar plate reader (BMG Instruments, Aylesbury, UK) as a ratio of specific 665 nm energy transfer signal to reference europium 620 nm signal."}, "[2]": {"tested_on": "human whole blood", "assay": "Human whole blood assay (LPS stimulated TNFα)", "type": "cell-based", "conditions": "read-out: pIC50 potency, inhibition of TNF production (converted)", "method": "Heparinised blood drawn from normal volunteers was dispensed (100 μl) into microtitre plate wells containing 1.0 μl of an appropriately diluted compound solution in DMSO. After 1 hr incubation at 37° C., 5% CO2, 25 μl LPS solution (S. typhosa) in RPMI 1640 (containing 1% L-glutamine and 1% Penicillin/streptomycin) was added (50 ng/ml final). The samples were incubated at 37° C., 5% CO2 for 20 hours, 50 μls physiological saline (0.138% NaCl) was added and diluted plasma was collected using a Biomek FX liquid handling robot after centrifugation at 1300 g for 10 min. Plasma TNFα content was determined by electrochemiluminescence assay using the Mesoscale (MSD) technology.\n20 μl supernatant from PBMC plates or 40 μl from whole blood plates was transferred using the Biomek FX to a 96 well High-Bind MSD assay plate precoated with anti-hTNF alpha capture antibody and containing 25 μl of MSD human serum cytokine assay diluent. […] The plates were shaken at room temperature for a further 1 hour before washing again and adding 150 μl of MSD Read Buffer T (2×). Plates were then read on the MSD Sector 6000 plate reader. For the PBMC assay, supernatant addition to the MSD plates was followed immediately by 20 μl of MSD detection antibody, the plates were then sealed and shaken for 2 hours before addition of 90 μl of MSD Read Buffer P (2.5×). Plates were read on the MSD Sector 6000. […]"}, "[3]": {"tested_on": "A549 SPAP cells", "assay": "NFkB reporter assay", "type": "cell-based", "conditions": "Homo sapiens, TNF stimulated, read-out: pIC50 potency (converted)", "method": "A 70% confluent T225 flask of A549 SPAP cells was harvested by centrifugation for 5 min at 200 g, resuspended in assay buffer (DMEM supplemented with 10% FCS 2×HI, 2 mM L-Glutamine, 1% Pen/Strep and Non essential amino acids) and diluted to 0.16×10^6/ml. 60 μl of cell solution was dispensed to each well of clear Nunc 384-well plates, containing 0.5 μl compound in neat DMSO at 140× the required final assay concentration. Plates were incubated for 1h at 37° C., 95% humidity, 5% CO2 before […] of TNF solution in assay buffer was added to give a final concentration of 3.2 ng/ml and then returned to the cell incubator for 15 h. Plates were equilibrated to room temperature for 1 h prior to the addition of 25 μl of pNPP buffer (1 M Diethanolamine pH 9.8, 0.5 mM MgCl2, 0.28M NaCl, 2 mg/ml pNPP) to each well of assay plates. The plates were covered to protect the reagents from light, and then incubated at room temperature for approximately 1 hour before reading them on an Ascent using a 405 nm single filter.\nAll data was normalized to the mean of 16 high and 16 low control wells on each plate. A four parameter curve fit of the following form was then applied"}},
  "data": [
    {"smiles": "COCCS(=O)(=O)N1CCC(c2c[nH]c3c(C(N)=O)cc(-c4ccc5c(c4)CN(C(C)C)C5)cc23)CC1", "note": "[Compound of formula (I), 5-[2-(1-methylethyl)-2,3-dihydro-1H-isoindol-5-yl]-3-(1-{[2-(methyloxy)ethyl]sulfonyl}-4-piperidinyl)-1H-indole-7-carboxamide]", "values": [
      {"measurement": "IC50", "setting": "[1]", "value": "< 100", "unit": "nM"},
      {"measurement": "IC50", "setting": "[2]", "value": "< 316", "unit": "nM"},
      {"measurement": "IC50", "setting": "[3]", "value": "< 31.6", "unit": "nM"}
    ]}
  ]
}
